Laboratory results taken from ChEMBL document CHEMBL1127912, “The contribution to binding of the pyranoside substituents in the excised binding domain of FK-506” (Bioorg Med Chem Lett, 1994).

Biological target: Peptidyl-prolyl cis-trans isomerase FKBP1A (Homo sapiens, UniProt P62942)
Test: Ability to displace radiolabeled FK-506 derivative from FK506 binding protein 12

Chain of Peptidyl-prolyl cis-trans isomerase FKBP1A (P62942 whole entry): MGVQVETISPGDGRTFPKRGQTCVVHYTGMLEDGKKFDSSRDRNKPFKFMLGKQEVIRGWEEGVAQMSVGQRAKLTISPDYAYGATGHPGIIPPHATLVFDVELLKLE

Row | SMILES | Kd [µM]
1 | C=CCCC[C@H](OC(=O)[C@@H]1CCCCN1C(=O)C(=O)[C@@]1(O)CCCCO1)/C(C)=C/[C@@H]1CC[C@@H](O)[C@H](OC)C1 | 29
2 | C=CCCC[C@H](OC(=O)[C@@H]1CCCCN1C(=O)C(=O)[C@@]1(O)CC[C@H](OC)[C@@H](COC)O1)/C(C)=C/[C@@H]1CC[C@@H](O)[C@H](OC)C1 | 40
3 | C=CCCC[C@H](OC(=O)[C@@H]1CCCCN1C(=O)C(=O)[C@]1(O)O[C@H](COC)[C@@H](OC)C[C@H]1C)/C(C)=C/[C@@H]1CC[C@@H](O)[C@H](OC)C1 | 0.01
